From PMC6835155, “Lessons from LIMK1 enzymology and their impact on inhibitor design” (Biochemical Journal, 2019)

Legend:
LIMK2KD = target: T1, LIMK2KD (Homo sapiens, UniProt P53671); assay: Differential (dynamic) scanning fluorimetry (DSF) assay, LIMK2KD; format: binding; conditions: LIMK2KD, compound 10 µM, single shot; for ΔTm at 10 µM: read-out: TM Shift LIMK2 (K)
T1 construct: The cDNA coding for LIMK2 residues 330 to 632 was PCR amplified; His6 (N, cleaved yes); made in house; host or cells: baculovirus; Sf9 for virus, TriEx insect cells for expression

LIMK1KD = target: T2, LIMK1KD (Homo sapiens, UniProt P53667); assay: Differential (dynamic) scanning fluorimetry (DSF) assay, LIMK1KD; format: binding; conditions: 2 µM LIMK1KD, compound 10 µM, single shot; for ΔTm at 10 µM: read-out: TM Shift LIMK1 (K)
T2 construct: His6 (N, cleaved yes); made in house; host or cells: baculovirus; Sf9 for virus, TriEx insect cells for expression
T2 sequence (P53667 330-637): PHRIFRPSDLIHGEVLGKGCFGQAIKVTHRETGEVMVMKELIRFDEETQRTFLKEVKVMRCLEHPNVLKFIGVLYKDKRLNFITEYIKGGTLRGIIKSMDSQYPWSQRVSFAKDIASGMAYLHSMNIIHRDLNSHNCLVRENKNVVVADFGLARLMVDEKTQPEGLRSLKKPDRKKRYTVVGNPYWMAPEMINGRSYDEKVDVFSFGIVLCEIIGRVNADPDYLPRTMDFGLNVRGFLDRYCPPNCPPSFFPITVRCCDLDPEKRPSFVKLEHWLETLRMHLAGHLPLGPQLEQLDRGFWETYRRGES

T1 sequence (P53671 330-632): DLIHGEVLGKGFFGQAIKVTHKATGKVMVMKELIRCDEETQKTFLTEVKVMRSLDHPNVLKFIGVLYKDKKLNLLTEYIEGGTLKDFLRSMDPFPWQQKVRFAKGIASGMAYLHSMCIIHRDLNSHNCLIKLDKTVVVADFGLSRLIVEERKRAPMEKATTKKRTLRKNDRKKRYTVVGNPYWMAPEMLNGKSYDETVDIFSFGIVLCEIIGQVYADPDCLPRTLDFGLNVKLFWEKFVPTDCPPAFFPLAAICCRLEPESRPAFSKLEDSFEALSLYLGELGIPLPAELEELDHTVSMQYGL

Row | TM Shift LIMK2 (K) (LIMK2KD) | TM Shift LIMK1 (K) (LIMK1KD) | ΔTm at 10 µM (LIMK2KD) [°C] | ΔTm at 10 µM (LIMK1KD) [°C] | Structure (SMILES)
1 | 2.3 | 0.7 |  |  | O=C1NC(=O)C(=Cc2ccc(-c3ccc(F)cc3)o2)S1 (stereo in doubt) [CAY10505]
2 |  |  | 0.5 | 0.4 | Cn1cnc(N)c2ncnc1-2 [3-Methyladenine]
3 | 1.7 | 0.3 |  |  | CCc1ccc(/C=C2/SC(=S)NC2=O)cc1 [10058-F4]
4 | 1.0 | 0.0 |  |  | Cc1nc(NC(=O)N2CCC[C@H]2C(N)=O)sc1-c1csc(C(C)(C)C)n1 [A66]
5 | 0.2 | 0.8 |  |  | Cc1[nH]nc2ccc(-c3cncc(OC[C@@H](N)Cc4ccccc4)c3)cc12 [A-674563]
6 | 2.4 | 0.9 |  |  | N#Cc1c(O)c2c(-c3ccc(-c4ccccc4O)cc3)csc2[nH]c1=O [A-769662]
7 |  |  | 4.5 | 4.7 | CCN1CCN(Cc2ccc(-c3cc4c(N[C@H](C)c5ccccc5)ncnc4[nH]3)cc2)CC1 [AEE788 (NVP-AEE788)]
8 | 0.9 | 0.7 |  |  | N#C/C(=C\c1ccc(O)c(O)c1)C(=O)NCc1ccccc1 [AG-490 (Tyrphostin B42), Tyrphostin B42]
9 |  |  | -0.2 | 1.4 | COc1cc2ncnc(Nc3cccc(Cl)c3)c2cc1OC [AG-1478 (Tyrphostin AG-1478), Tyrphostin AG-1478]
10 | -0.8 | 1.3 |  |  | COc1ccc2c(Oc3ccc(NC(=O)c4c(C)n(CC(C)(C)O)n(-c5ccccc5)c4=O)nc3)ccnc2c1 [AMG-458]
11 |  |  | -2.1 | 0.5 | Cc1csc(-c2nnc(Nc3ccc(Oc4ncccc4-c4ccnc(N)n4)cc3)c3ccccc23)c1 [AMG-900]
12 |  |  | 0.1 | 3.4 | COc1cc(N2CCC(N3CCN(C)CC3)CC2)ccc1Nc1ncc(Cl)c(Nc2ccccc2P(C)(C)=O)n1 [AP26113]
13 | 1.0 | 1.4 |  |  | COc1ccc(CNC(=O)Nc2ncc([N+](=O)[O-])s2)cc1 [AR-A014418]
14 | 3.0 | -0.1 |  |  | O=C1NC(=O)/C(=C/c2ccc(-c3ccc(F)cc3O)o2)S1 [AS-252424]
15 | 2.2 | 0.3 |  |  | O=C1NC(=O)/C(=C/c2ccc3c(c2)OC(F)(F)O3)S1 [AS-604850]
16 |  |  | 1.4 | 3.7 | COc1cc(N2CCC(N3CCN(C)CC3)CC2)ccc1Nc1ncnc(Nc2ccccc2S(=O)(=O)C(C)C)n1 [ASP3026]
17 |  |  | 0.1 | 0.4 | C=CC(=O)Nc1ccc2ncnc(Nc3ccc(OCc4cccc(F)c4)c(Cl)c3)c2c1 [AST-1306]
18 |  |  | 1.3 | 1.2 | O=C(NC1CCNCC1)c1[nH]ncc1NC(=O)c1c(Cl)cccc1Cl [AT7519]
19 | 1.4 | 0.9 |  |  | Clc1ccc(C2(c3ccc(-c4cn[nH]c4)cc3)CCNCC2)cc1 [AT7867]
20 |  |  | 4 | 9 | O=C(Nc1c[nH]nc1-c1nc2ccc(CN3CCOCC3)cc2[nH]1)NC1CC1 [AT9283]
21 |  |  | 3.1 | 3.8 | C=CC(=O)Nc1cccc(Nc2nc(Nc3ccc(OCCOC)cc3)ncc2F)c1 [AVL-292]
22 |  |  | 6.2 |  | Cc1ccc(Nc2nccc(N(C)c3ccc4c(C)n(C)nc4c3)n2)cc1S(N)(=O)=O [Pazopanib]

Row | Structure (SMILES) | TM Shift LIMK2 (K) (LIMK2KD) | TM Shift LIMK1 (K) (LIMK1KD) | ΔTm at 10 µM (LIMK2KD) [°C] | ΔTm at 10 µM (LIMK1KD) [°C]
23 | COc1cc(O)c2c(c1)/C=C/C[C@H](O)[C@H](O)C(=O)/C=C\C[C@H](C)OC2=O [(5Z)-7-Oxozeaenol] | 0.7 | 2.8 |  | 
24 | N#CC(C#N)=Cc1ccc(O)c(O)c1 [AG-18] | 0.6 | 0.1 |  | 
25 | CC(C)(C)c1cc(C=C(C#N)C#N)cc(Br)c1O [AG-1024] | 4.3 | 2.5 |  | 
26 | O=c1c(O)c(-c2ccc(O)c(O)c2)oc2cc(O)cc(O)c12 [Quercetin] |  |  | 3.9 | 
27 | CNC(=O)c1cc(Oc2ccc(NC(=O)Nc3ccc(Cl)c(C(F)(F)F)c3)cc2)ccn1 [Sorafenib] |  | -0.7 |  | 
